“And” between values parts separate entries of the source, which are not always exact repeats. Equal entries are not always repeated.
Experiments:
LptB2F^E249KGC = experiment: LPS release assay, LptB2F(E249K)GC; assay type: biochemical, Acinetobacter baylyi; conditions: LptF E249K complex, E. coli LPS
Protocol: (§1) Proteoliposomes were prepared as described previously. Aqueous E. coli polar lipid extract (Avanti Polar Lipids) (30 mg ml^−1) and aqueous LPS from E. coli EH100 (Ra mutant; Sigma) (2 mg ml^−1) were sonicated briefly for homogenization. For experiments testing the effect of LPS structure, we used LPS isolated from either GKM374 (BL21DE3 eptA::catR arnA::kanR eptC::gentR) or TXM418 (BL21DE3 eptA::catR arnA::FRT eptB::gentR lpxM::kanR) as described previously. A mixture of 20 mM Tris-HCl (pH 8.0), 150 mM NaCl, 7.5 mg ml^−1 of E. coli polar lipids, 0.5 mg ml^−1 of LPS and 0.25% DDM was prepared and kept on ice for 10 min. Purified LptB2FGC or LptB2FG was added to a final concentration of 0.86 μM and the mixture was left on ice for 20 min. The mixture was diluted 100-fold with cold 20 mM Tris-HCl (pH 8.0) and 150 mM NaCl and kept on ice for 20 min. The proteoliposomes were pelleted (300,000g, 2 h, 4 °C), resuspended in 20 mM Tris-HCl (pH 8.0) and 150 mM NaCl, diluted 100× and centrifuged (300,000g, 2 h, 4 °C). The pellets were resuspended in a mixture of 20 mM Tris-HCl (pH 8.0), 150 mM NaCl and 10% glycerol (250 μl per 100 μl of the original predilution solution), homogenized by sonication, flash frozen and stored at −80 °C until use.
The amounts of release of LPS from proteoliposomes to LptA were measured as previously described. […]

[1] = test system: Acinetobacter baylyi ΔLpxC; assay type: cell-based; conditions: A. baylyi ΔLpxC (lacking LPS)
Protocol: (§2) Culture, genetic manipulation and MIC measurements of A. baylyi ADP1 were conducted according to previously reported procedures[46],[51]. Point mutants were constructed in a two-step procedure following ref. [52] with the introduction and excision of the integration cassette at codon 66 of pepA, wherein the excising fragment of otherwise wild-type chromosomal DNA sequence from codon 406 of pepA to codon 193 of lptG bore the desired mutation and the resulting clones were screened by amplicon sequencing from codon 81 of HolC to codon 501 of GpmI, whereas lpxM deletion was achieved following the same procedure except that the integration cassette insertion and excision removed codons 79–279 of lpxM to avoid interference with neighbouring and overlapping genes that a larger deletion may risk and replaced codon 78 with an ochre stop codon to prevent a readthrough resulting in an aberrant fusion, with the excising fragment sequence spanning from codon 211 of sppA to codon 497 of ComA and verified by amplicon sequencing from codon 94 of MhpC to codon 327 of ComA as well as by absence of a PCR product corresponding to a region spanning codons 79 to 279 of lpxM to check for duplications. A deletion of the lon protease was made in the same manner to produce the stain used for expression and purification of LptB2FG to mimic the BL21 strain of E. coli used in the rest of purifications, for which the region encompassing 72 base pairs (bp) upstream of the lon start codon and 1 bp downstream of the lon stop codon was excised after being replaced with the same integration cassette, yielding a markerless deletion, with the excising fragment sequence spanning from codon 491 of ArnT to codon 40 of 45_DOPA_Dioxygenase and verified by amplicon sequencing spanning from codon 322 of ArnT to codon 221 of 45_DOPA_Dioxygenase as well as by absence of a PCR product corresponding to a region spanning from codons 328 to 768 of lon to check for duplications. Following amplicon confirmation, three validated isolates of each constructed mutant were tested for susceptibility to a panel of antibiotics with […] known mechanisms of action as a further validation step to ensure congruence of phenotypes across replicates, which was confirmed in all cases and one of the validated replicates was later used for MIC measurements reported here.
(§3) MIC determinations were performed by broth microdilution in line with CLSI guidelines (CLSI M07-A11 2018). Bacterial inocula were prepared by diluting overnight liquid cultures in LB. Antibacterial panels containing antibacterial solutions were inoculated with an appropriate volume of inoculum to give a final inoculum of about 5 × 10^5 c.f.u. ml^−1 and desired test concentrations of antibacterial agents in standard 96-well plates with 0.1 ml of culture per well. The test plates were incubated for 20–24 h and optical density (OD600) was recorded using a plate reader. MIC values corresponded to the lowest compound concentration inhibiting bacterial growth beyond which OD ceased to decrease.

Acinetobacter LptB2FGC = experiment: LPS release assay from proteoliposomes to LptA, wild-type LptB2FGC; assay type: biochemical, Acinetobacter baylyi; conditions: for Inhibition of LPS release (transport) to LptA: wild-type LptB2FGC, E. coli LPS, 60 min
Protocol: as §1
The amounts of release of LPS from proteoliposomes to LptA were measured as previously described. Assays used 60% proteoliposomes (by volume) in a solution containing 50 mM Tris-HCl (pH 8.0), 500 mM NaCl, 10% glycerol and 2 µM LptA^I36pBPA. Reaction mixtures were incubated with drug for 10 min at room temperature, as applicable. Reactions were then initiated by the addition of ATP and MgCl2 (final concentrations of 5 mM and 2 mM, respectively) and proceeded at 30 °C. Aliquots (25 µl) were removed from the reaction mixtures and irradiated with ultraviolet (UV) light (365 nm) on ice for 10 min using a B-100AP lamp (Fisher Scientific). Following UV irradiation, 25 µl of 2× SDS–PAGE sample loading buffer was added, samples were boiled for 10 min and proteins were separated using Tris-HCl 4–20% polyacrylamide gradient gels with Tris-glycine running buffer. Immunoblotting was conducted as described above.

[2] = test system: Acinetobacter baylyi LptF(E249K); assay type: cell-based; conditions: A. baylyi LptF(E249K)
Protocol: as §2, §3

[3] = test system: Acinetobacter baylyi LptF(W271R); assay type: cell-based; conditions: A. baylyi LptF(W271R)
Protocol: as §2, §3

[4] = test system: Acinetobacter baylyi LptF(V314L 315del); assay type: cell-based; conditions: A. baylyi LptF(V314L 315del)
Protocol: as §2, §3

[5] = test system: Acinetobacter baylyi LptF(E58V); assay type: cell-based; conditions: A. baylyi LptF(E58V)
Protocol: as §2, §3

[6] = test system: Acinetobacter baylyi LptF(R320T); assay type: cell-based; conditions: A. baylyi LptF(R320T)
Protocol: as §2, §3

[7] = test system: Acinetobacter baylyi LptF(I317N); assay type: cell-based; conditions: A. baylyi LptF(I317N)
Protocol: as §2, §3

[8] = test system: Acinetobacter baylyi LptG(L36Q); assay type: cell-based; conditions: A. baylyi LptG(L36Q)
Protocol: as §2, §3

E. coli LptB2FGC = target: T1, E. coli LptB2FGC (Escherichia coli, UniProt P0ADC6+P0AF98); experiment: LPS release assay, E. coli LptB2FGC; assay type: biochemical; conditions: wild-type E. coli LptB2FGC, 60 min
T1 construct: made in house
T1 sequence (P0AF98 whole entry): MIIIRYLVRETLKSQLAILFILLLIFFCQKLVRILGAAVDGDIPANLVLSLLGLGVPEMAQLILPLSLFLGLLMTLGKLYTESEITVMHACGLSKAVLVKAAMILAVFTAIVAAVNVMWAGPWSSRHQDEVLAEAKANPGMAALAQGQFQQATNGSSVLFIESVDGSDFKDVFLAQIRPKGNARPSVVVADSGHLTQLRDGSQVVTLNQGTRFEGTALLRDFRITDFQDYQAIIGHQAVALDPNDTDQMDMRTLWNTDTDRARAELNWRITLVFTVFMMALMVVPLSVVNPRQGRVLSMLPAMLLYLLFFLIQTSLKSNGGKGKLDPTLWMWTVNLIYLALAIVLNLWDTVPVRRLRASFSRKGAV
T1 sequence (P0ADC6 whole entry): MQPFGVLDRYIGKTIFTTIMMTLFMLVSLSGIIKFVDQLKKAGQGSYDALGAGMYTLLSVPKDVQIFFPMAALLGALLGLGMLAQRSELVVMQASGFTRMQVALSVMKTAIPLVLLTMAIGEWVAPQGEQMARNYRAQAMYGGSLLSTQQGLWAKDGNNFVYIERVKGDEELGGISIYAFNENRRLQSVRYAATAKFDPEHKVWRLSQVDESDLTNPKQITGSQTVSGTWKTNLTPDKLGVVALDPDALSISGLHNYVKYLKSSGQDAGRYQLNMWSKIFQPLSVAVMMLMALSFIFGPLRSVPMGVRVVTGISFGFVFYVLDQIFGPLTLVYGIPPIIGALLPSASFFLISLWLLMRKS
T1 sequence (P0A9V1 whole entry partner): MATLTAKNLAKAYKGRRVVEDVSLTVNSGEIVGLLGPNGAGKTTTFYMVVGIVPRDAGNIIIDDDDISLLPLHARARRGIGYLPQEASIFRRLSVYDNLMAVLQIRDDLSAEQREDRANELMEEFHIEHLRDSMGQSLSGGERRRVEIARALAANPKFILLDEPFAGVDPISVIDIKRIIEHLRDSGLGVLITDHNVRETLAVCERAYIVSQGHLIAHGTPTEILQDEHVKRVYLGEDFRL
T1 sequence (P0ADV9 whole entry partner): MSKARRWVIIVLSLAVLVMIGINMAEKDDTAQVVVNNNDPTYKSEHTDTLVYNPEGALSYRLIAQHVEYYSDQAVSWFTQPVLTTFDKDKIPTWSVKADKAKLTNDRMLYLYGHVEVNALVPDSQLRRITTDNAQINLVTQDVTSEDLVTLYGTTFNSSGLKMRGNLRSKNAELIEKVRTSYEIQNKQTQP
Protocol: The amounts of release of LPS from proteoliposomes to LptA were measured as previously described[20]. Assays used 60% proteoliposomes (by volume) in a solution containing 50 mM Tris-HCl (pH 8.0), 500 mM NaCl, 10% glycerol and 2 µM LptA^I36pBPA. Reaction mixtures were incubated with drug for 10 min at room temperature, as applicable. Reactions were then initiated by the addition of ATP and MgCl2 (final concentrations of 5 mM and 2 mM, respectively) and proceeded at 30 °C. Aliquots (25 µl) were removed from the reaction mixtures and irradiated with ultraviolet (UV) light (365 nm) on ice for 10 min using a B-100AP lamp (Fisher Scientific).

With `CN1C(=O)[C@H](CCCCN)NC(=O)[C@H](CCCN)NCc2cccnc2Sc2c(Cl)ccc(-c3ccc(N)nc3)c2CNC(=O)[C@@H]1Cc1c[nH]c2ccccc12` [Compound 1] the “Inhibition of LPS release to LptA” value (LptB2F^E249KGC) was “did not block LPS release”, the MIC [1] was > 50 µM and > 40 µg/mL and the “Fold higher compound concentration at which transport of ΔLpxM LPS was possible vs that inhibiting wild-type LPS transport” value (Acinetobacter LptB2FGC; LPS from E. coli LpxM deletion strain vs matching wild-type LPS) was 20 fold. For the same compound, the “Inhibition of LPS release (transport) to LptA” value (Acinetobacter LptB2FGC) was “blocked LPS release”.

For `CN1C(=O)[C@H](CCCCN)NC(=O)[C@H](CCCN)NCc2cccnc2Sc2cccc(-c3ccc(C(=O)O)cc3)c2CNC(=O)[C@@H]1Cc1c[nH]c2ccccc12` [Compound 2, Zosurabalpin], the MIC [2] was 17 µM and 13 µg/mL, the MIC [3] was 0.08 µg/mL and 0.1 µM and the MIC [4] was 3 µM and 2 µg/mL. For the same compound, the MIC [5] was 3.4 µM and 2.7 µg/mL, the MIC [6] was 1.4 µM and 1.1 µg/mL and the MIC [7] was 9 µM and 7 µg/mL. The MIC [8] was 0.44 µM and 0.35 µg/mL and the “Inhibition of LPS transport to LptA” value (E. coli LptB2FGC) was “does not inhibits LPS transport”.

With `CN1C(=O)[C@H](CCCCN)NC(=O)[C@H](CCCN)NCc2cccnc2Sc2c(Cl)ccc(Cl)c2CNC(=O)[C@@H]1Cc1c[nH]c2ccccc12` [Compound 3] the MIC [2] was greater than 50 µM, the MIC [3] was 0.07 µg/mL and 0.1 µM and the MIC [4] was 0.24 µM and 0.18 µg/mL. The MIC [5] was 14 µM and 10 µg/mL, the MIC [6] was 0.24 µM and 0.18 µg/mL and the MIC [7] was greater than 50 µM. For the same compound, the MIC [8] was 0.44 µM and 0.33 µg/mL, the “Fold less effective than 1 and 2 in LPS release from LptB2FGC to LptA” value (Acinetobacter LptB2FGC; LptB2FGC with LptC TM helix) was 100 fold and the “Inhibition of LPS release (transport) to LptA” value (Acinetobacter LptB2FGC) was “not inhibited”.

Source: publication PMC10794137, “A new antibiotic traps lipopolysaccharide in its intermembrane transporter” (Nature, 2024)
